# Data as given in article PMC11402785, “Structural basis for activity switching in polymerases determining the fate of let-7 pre-miRNAs” (Nature Structural & Molecular Biology, 2024).
# T1: TUT7 (Homo sapiens, UniProt Q5VYS8)
# T1 construct: full-length wild type 1-1495; TEV-cleavable N-terminal His6-GST tag, C-terminal twin Strep tag; E. coli KRX
# T1 sequence (Q5VYS8 1-1495): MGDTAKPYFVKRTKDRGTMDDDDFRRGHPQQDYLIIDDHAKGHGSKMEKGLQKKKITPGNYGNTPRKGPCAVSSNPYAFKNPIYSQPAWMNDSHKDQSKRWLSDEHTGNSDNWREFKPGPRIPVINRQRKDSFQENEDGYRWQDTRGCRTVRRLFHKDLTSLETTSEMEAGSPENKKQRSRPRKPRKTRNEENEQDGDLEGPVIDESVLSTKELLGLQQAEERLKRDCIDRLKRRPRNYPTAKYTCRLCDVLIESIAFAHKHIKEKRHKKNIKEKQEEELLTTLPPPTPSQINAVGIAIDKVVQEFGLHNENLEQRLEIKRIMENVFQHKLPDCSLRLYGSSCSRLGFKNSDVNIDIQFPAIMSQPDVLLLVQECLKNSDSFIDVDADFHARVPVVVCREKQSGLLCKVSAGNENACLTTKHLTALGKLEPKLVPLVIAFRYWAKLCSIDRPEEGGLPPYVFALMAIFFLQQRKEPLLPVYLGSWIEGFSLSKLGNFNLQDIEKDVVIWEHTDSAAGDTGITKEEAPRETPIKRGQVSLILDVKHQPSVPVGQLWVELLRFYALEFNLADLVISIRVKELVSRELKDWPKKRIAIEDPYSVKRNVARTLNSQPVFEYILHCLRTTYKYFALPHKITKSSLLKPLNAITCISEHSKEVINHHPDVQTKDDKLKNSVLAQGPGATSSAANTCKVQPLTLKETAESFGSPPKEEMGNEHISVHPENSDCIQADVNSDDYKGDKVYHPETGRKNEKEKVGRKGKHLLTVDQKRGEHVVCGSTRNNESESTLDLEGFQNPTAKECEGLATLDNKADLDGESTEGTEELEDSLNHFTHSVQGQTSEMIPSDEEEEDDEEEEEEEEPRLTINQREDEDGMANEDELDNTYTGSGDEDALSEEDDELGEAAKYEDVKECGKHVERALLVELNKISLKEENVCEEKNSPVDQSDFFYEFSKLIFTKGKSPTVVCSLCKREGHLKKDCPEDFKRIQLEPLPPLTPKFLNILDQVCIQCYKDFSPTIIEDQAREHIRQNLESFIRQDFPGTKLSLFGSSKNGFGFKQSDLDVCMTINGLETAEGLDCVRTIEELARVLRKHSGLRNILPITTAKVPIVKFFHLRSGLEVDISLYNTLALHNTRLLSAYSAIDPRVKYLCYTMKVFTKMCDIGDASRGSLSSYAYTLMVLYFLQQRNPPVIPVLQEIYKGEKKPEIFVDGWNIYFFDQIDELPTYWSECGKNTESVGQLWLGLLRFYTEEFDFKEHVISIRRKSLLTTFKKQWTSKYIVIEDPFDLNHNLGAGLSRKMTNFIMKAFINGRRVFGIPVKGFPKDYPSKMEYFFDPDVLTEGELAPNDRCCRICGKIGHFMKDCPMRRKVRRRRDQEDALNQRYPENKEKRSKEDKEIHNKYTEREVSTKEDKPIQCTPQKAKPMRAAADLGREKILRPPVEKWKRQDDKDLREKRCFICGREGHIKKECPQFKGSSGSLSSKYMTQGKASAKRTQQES
# T2: human terminal uridylyltransferase 7 (TUT7), full length (1-1495) (human, UniProt Q5VYS8 1-1495)
# T2 construct: TUT7 (ZCCHC6), human, residues 1-1495, wild type, synthesised gene; The His6-GST tag is cleavable by tobacco etch virus protease; Unmodified (not PEGylated) enzyme was used for the complexes; also called ZCCHC6; source: E. coli KRX, purified (Strep-XT 4Flow beads, Heparin column, size-exclusion chromatography)
# T2 sequence (looked up): T1 sequence (Q5VYS8 1-1495)
# T3: TUT7 (ZCCHC6) (Homo sapiens, UniProt Q5VYS8 1-1495)
# T3 sequence: T1 sequence (Q5VYS8 1-1495)
# B1: human LIN28A (natural protein)
# chain: MGSVSNQQFAGGCAKAAEEAPEEAPEDAARAADEPQLLHGAGICKWFNVRMGFGFLSMTARAGVALDPPVDVFVHQSKLHMEGFRSLKEGEAVEFTFKKSAKGLESIRVTGPGGVFCIGSERRPKGKSMQKRRSKGDRCYNCGGLDHHAKECKLPPQPKKCHFCQSISHMVASCPLKAQQGPSAQGKPTYFREEEEEIHSPTLLPEAQN
# notes: LIN28A, human, synthesised gene; Expressed as an N-terminal His6-GST fusion; removal of the tag is not described; The phrase 'full-length wild-type human TUT7 and human LIN28A' may or may not mean that LIN28A was full length; Only the ZK domain is resolved in the maps
# B2: pre-let-7g (structured_RNA)
# RNA: UGAGGUAGUAGUUUGUACAGUUUGAGGGUCUAUGAUACCACCCGGUACAGGAGAUAACUGUACAGGCCACUGCCUUGC
# Key:
# [1] = target: T1, TUT7; test: in vitro uridylation of labelled pre-let-7g, denaturing PAGE; assay type: biochemical; settings: pre-let-7g RNA co-substrate, no LIN28A, 0.5 mM UTP, 5 mM MgCl2, 50 µM ZnCl2, pH 7.8, 37 °C
# [2] = target: T1, TUT7; test: cryo-EM structure, […] Å; assay type: binding; settings: pre-let-7g, 2 mM CaCl2, 0.5 mM UTPαS, pH 7.8; catalytic pocket of the CM (active site)
# [3] = target: T2, human terminal uridylyltransferase 7 …; test: cryo-EM structure; ternary complexes of TUT7 or TUT4 with pre-let-7g RNA and LIN28A mixed at a molar ratio of 1:1.5:2, overnight on ice with 0.5 mM UTPalphaS, 2 mM DTT, 2 mM CaCl2, then SEC in 20 mM HEPES pH 7.8, 100 mM NaCl; settings: both partners purified
# [4] = target: T3, TUT7 (ZCCHC6); test: cryo-EM; UTPalphaS; binary complex, 3.55 A; EMSA: 20 mM HEPES pH 7.8, 100 mM NaCl, 2 mM CaCl2, 50 uM ZnCl2, 5% glycerol, 5 mM DTT, 0.5 mM UTP, RNase inhibitor, on ice 30 min; 0.1 uM RNA, 0.2 uM TUT, 0.3 uM LIN28A; native gel in 1x TBE at 4 C; settings: protein: recombinant; tags: N-term His6-GST (TEV cleavable), C-term twin-Strep; hairpin, 1 nt 3' overhang
molecule,measurement,setting,value
O=c1ccn([C@@H]2O[C@H](COP(=O)(O)OP(=O)(O)OP(=O)(O)O)[C@@H](O)[C@H]2O)c(=O)[nH]1 [UTP],"in vitro uridylation of labelled pre-let-7g, denaturing PAGE",[1],In vitro activity assays for TUT7 showing mono-uridylation activity in the absence of LIN28A
O=c1ccn([C@@H]2O[C@H](COP(O)(=S)OP(=O)(O)OP(=O)(O)O)[C@@H](O)[C@H]2O)c(=O)[nH]1 (stereo partly shown) [UTPαS],"cryo-EM structure, 3.55 Å",[2],"UTPαS bound and stabilized by the critical residues; F1045, S1047, Q1124, L1126, N1130"
B1,binding result,[3],binds
B2,binding result,[4],binds
